“And” between values parts separate entries of the source, which are not always exact repeats. Equal values may be shown once.
Key:
[1] = system: ischemia reperfusion injury/nephrectomy (IR/Nx) model; experiment: Survival rate of IR/Nx model mice two days after nephrectomy; format: in vivo
Experimental: The survival rate of IR/Nx model mice two days after nephrectomy was determined across six different experiments to determine if administration of anti-miR-21 compounds increases survival. In the first three experiments, anti-miR-21 compound was administered on days 5, 6, and 7 after ischemia reperfusion injury, and nephrectomy occurred on day 10 or day 11. In the second three experiments, anti-miR-21 compound was administered on days 2, 3, and 4, and nephrectomy occurred on day 7.

[2] = system: ischemia reperfusion injury (IRI) model; experiment: Unilateral IRI model: collagen area fraction of kidney tissue; format: in vivo, mouse
Experimental: (§1) A model of ischemia reperfusion injury (IRI) is created in the mouse through unilateral or bilateral clamping of kidney arteries, which leads to tubule damage, inflammation, and fibrosis. Kidney dysfunction can occur either early (<5 days) or late (>7 days) in this model, with the early time points useful to test candidate agents for the treatment of acute kidney injury, and the later time points useful to model chronic fibrosis.
(§2) Anti-miR-21 compounds were tested in the unilateral IRI model. Unilateral IRI was induced for a period of 30 minutes. Treatment groups were as follows: sham IRI procedure; IRI with PBS administered subcutaneously; IRI with anti-miR-21 compound 25070 administered intraperitoneally at a dose of 20 mg/kg; the 2′-fluoro/2′-MOE modified anti-miR-21 25919 administered intraperitoneally at a dose of 20 mg/kg; and a 2′-fluoro/2′ modified mismatch anti-miR-21 (having three mismatches to the sequence of miR-21) 25319 administered intraperitoneally at a dose of 20 mg/kg. PBS or anti-miR compound was administered on days 5, 6, and 7 following IRI, and animals were sacrificed 14 days after IRI. As anti-miR compound is administered 5 days following the injury to the kidney, or later, when fibrosis has already occurred to some extent, this treatment regimen is considered a therapeutic regimen, rather than a prophylactic regimen.
(§3) Kidney tissue was collected for analysis of collagen 1A1 and collagen 3A1 expression (shown in Table O), and collagen area fraction (shown in Table P).
(§4) A similar study was performed with the same treatment groups and additional days of treatment. In this study, treatments were administered intraperitoneally at days 5, 6, 7, 14, and 21 following the IRI procedure Animals were sacrificed on Day 27, and kidney tissue was collected for analysis of collagen 1A1 and collagen 3A1 expression, as well as collagen area fraction.

[3] = system: collagen 1A1 and collagen 3A1 expression in kidney, unilateral ureteral obstruction (UUO) model; experiment: UUO model of kidney fibrosis: kidney collagen 1A1 and collagen 3A1 expression by real-time PCR; format: in vivo, mice; conditions: for Collagen 1A1 (Normalized Expression), individual animal / Collagen 3A1 (Normalized Expression), individual animal: 20 mg/kg
How it was run: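 Fibrosis induced by unilateral ureter ligation, groups of 8; anti-miR-21 compounds dosed at 20 mg/kg around surgery (days −3, −1, +5 or −5, −3, +3; repeat study subcutaneous at −5, −2, +3). Kidneys taken on day 10 or 11; Col1A1 and Col3A1 mRNA measured by real-time PCR, normalized to GAPDH and, in one study, also to sham.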

[4] = system: collagen 1A1 and collagen 3A1 expression in kidney, ischemia reperfusion injury (IRI) model; experiment: Unilateral ischemia reperfusion injury (IRI) model: kidney collagen 1A1 and collagen 3A1 expression; format: in vivo, mouse
Experimental: as §1, §2, §3, §4
In order to assess the flexibility of administration of the anti-miR-21 compound 25070, the activity of the compound in the 14 day study above, where anti-miR-21 was administered at […] following the IRI procedure, to a different 14 day study where anti-miR-21 was administered intraperitoneally at days 3, 5, and 7 following the IRI procedure.

[5] = Ex vivo liver homogenate stability assay (HPLC-TOF MS); conditions: 5 μM in liver homogenate (50 mg tissue per ml), 24 hours at 37° C.
[6] = UUO comparison study, 25070 20 mg/kg s.c. at days -5, -2, +3, irbesartan PO daily days 0-7, sacrifice Day 10
[7] = UUO, 20 mg/kg at days -3, -1, +5 (prophylactic), kidney at day 11, real-time PCR normalized to GAPDH then sham
[8] = meta-analysis of repeated UUO studies, 20 mg/kg at days -3, -1, +5, kidney at day 11
[9] = repeat UUO study, 20 mg/kg SC, prophylactic
[10] = IRI, 14 day study, dosing Day 3, 5, 7 intraperitoneally, fold change relative to sham
[11] = unilateral IRI, 20 mg/kg intraperitoneally on days 5, 6, 7, sacrifice 14 days after IRI, 20 mg/kg
[12] = unilateral IRI, intraperitoneally on days 5, 6, 7, 14, 21, sacrifice Day 27

## AECSATCSAGTCSTGAUSAAGCSTAE (ACATCAGTCTGATAAGCTA; modified nucleosides coded in name, code key not given here) [Compound 25070]
[1]; Study 4, Nx Day 7, 20 mg/kg on days 2, 3, 4 after IR
  Survival rate 2 days after Nx: 75%
[1]; first three experiments: dosing days 5, 6, 7, nephrectomy day 10 or 11, PBS 55%, P=0.02
  survival rate 2 days after nephrectomy: 80%
[1]; second three experiments: dosing days 2, 3, 4, nephrectomy day 7, PBS 52%, P=0.11
  survival rate 2 days after nephrectomy: 69%
[2]; 20 mg/kg intraperitoneally on days 5, 6, 7, sacrifice 14 days after IRI, 20 mg/kg
  Collagen Area Fraction (#), individual animal: 10.266 and 11.772 and 10.267 and 8.404 and 7.862 and 6.975 and 8.381 and 13.773
[2]; 20 mg/kg intraperitoneally on days 5, 6, 7, sacrifice 14 days after IRI, group mean
  Collagen Area Fraction (#), Mean: 9.7
[2]; i.p. 20 mg/kg on days 5, 6, 7, sacrificed 14 days after IRI
  reduction in collagen area fraction (in words): statistically significant reduction
[2]; i.p. on days 5, 6, 7, 14, 21, sacrificed Day 27
  reduction in collagen area fraction (in words): statistically significant reduction
[2]; intraperitoneally on days 5, 6, 7, 14, 21, sacrifice Day 27
  Collagen Area Fraction (#), individual animal: 7.354 and 9.241 and 9.589 and 11.573 and 8.182 and 10.695 and 13.978 and 10.12
[3]; [6]
  Collagen 1A1 (Normalized Expression), individual animal: 87.5 and 67.4 and 22.2 and 61.9 and 42.0 and 69.2 and 68.4 and 95.2
  Collagen 3A1 (Normalized Expression), individual animal: 38.6 and 56.9 and 77.2 and 50.7 and 76.4 and 49.7 and 44.3 and 35.9
[3]; UUO comparison with irbesartan, 25070 s.c. 20 mg/kg days -5, -2, +3, irbesartan perorally daily days 0-7, day 10
  reduction in Col3a1 expression (in words): statistically significant reductions
[3]; UUO comparison with irbesartan, 25070 s.c. 20 mg/kg days -5, -2, +3, irbesartan perorally daily days 0-7, day 10, p<0.05 one-way ANOVA
  reduction in Col1A1 expression relative to saline-treated animals (in words): statistically significant reduction
[3]; UUO, 20 mg/kg at days -3, -1, +5 (prophylactic), kidney at day 11, group mean
  Collagen 1A1 (Normalized Expression), Mean: 81.0
[3]; [7]
  Collagen 1A1 (Normalized Expression), individual animal: 67.7 and 97.7 and 88.8 and 95.9 and 71.4 and 44.5 and 73.0 and 109.4
  Collagen 3A1 (Normalized Expression), individual animal: 36.4 and 75.6 and 47.3 and 55.5 and 63.3 and 28.5 and 64.2 and 72.9
[3]; [8]
  inhibition of collagen 1A1 expression: 40%
  inhibition of collagen 3A1 expression: 30%
[3]; [9]
  Collagen 1A1 (Normalized Expression), individual animal: 13.9 and 9.2 and 32.3 and 57.2 and 47.6 and 26.1 and 35.0 and 20.4
  Collagen 3A1 (Normalized Expression), individual animal: 34.9 and 47.4 and 25.3 and 38.0 and 47.9 and 54.3 and 56.1 and 35.2
[3]; repeated UUO study, subcutaneously 20 mg/kg, prophylactic
  inhibition of collagen 1A1 and collagen 3A1 expression (in words): potent inhibitor of collagen 1A1 and collagen 3A1 expression
[4]; IRI, 14 day studies, two dosing schedules compared (days 3, 5, 7 i.p.)
  reduction of collagen 1A1 or collagen 3A1 expression relative to sham (in words): statistically significant reduction of collagen expression with either dosing schedule
[4]; [10]
  Collagen 1A1 (Normalized Expression), individual animal: 37.5 and 21.9 and 35.3 and 26.0 and 24.9 and 16.8 and 30.8 and 34.3 and 36.8 and 9.4 and 28.0 and 24.6
  Collagen 3A1 (Normalized Expression), individual animal: 35.3 and 23.6 and 32.1 and 25.1 and 31.3 and 18.6 and 30.3 and 37.6 and 40.0 and 9.5 and 23.2 and 28.7
[4]; [11]
  Collagen 1A1 (Normalized Expression), individual animal: 81.7 and 57.4 and 37.9 and 55.3 and 22.3 and 52.4 and 53.0 and 41.5
  Collagen 3A1 (Normalized Expression), individual animal: 57.8 and 18.1 and 39.3 and 36.0 and 20.6 and 38.6 and 33.4 and 29.7
[4]; [12]
  Collagen 1A1 (Normalized Expression), individual animal: 26.4 and 37.4 and 41.9 and 36.8 and 14.1 and 27.7 and 29.4 and 37.6
  Collagen 3A1 (Normalized Expression), individual animal: 16.4 and 27.0 and 28.5 and 19.6 and 11.3 and 19.3 and 21.4 and 23.1
[5]
  compound lacking the 3'-terminal nucleoside: about 27%
  compound present as the full-length compound: about 58%
